{
  "source": "ChEMBL document CHEMBL5620348",
  "about": "“3-Hydroxy-pyridin-4(1H)-ones as siderophores mediated delivery of isobavachalcone enhances antibacterial activity against pathogenic Pseudomonas aeruginosa” (Eur J Med Chem, 2023)",
  "key": {"Pseudomonas aeruginosa [1]": {"test_system": "Pseudomonas aeruginosa", "test": "Antibacterial activity against Pseudomonas aeruginosa ATCC27853 assessed as inhibition of bacterial growth by measuring minimum inhibitory concentration incubated for 18 to 20 hrs in presence of M9 medium by broth microdilution assay", "assay_type": "functional", "conditions": "time 18-20 hrs"}, "Klebsiella pneumoniae": {"test_system": "Klebsiella pneumoniae", "test": "Antibacterial activity against Klebsiella pneumoniae ATCC 700603 assessed as inhibition of bacterial growth by measuring minimum inhibitory concentration incubated for 18 to 20 hrs in presence of M9 medium by broth microdilution assay", "assay_type": "functional", "conditions": "time 18-20 hrs"}, "Pseudomonas aeruginosa [2]": {"test_system": "Pseudomonas aeruginosa", "test": "Antibacterial activity against Pseudomonas aeruginosa PAO1 assessed as inhibition of bacterial growth by measuring minimum inhibitory concentration incubated for 18 to 20 hrs in presence of M9 medium by broth microdilution assay", "assay_type": "functional", "conditions": "time 18-20 hrs"}, "Pseudomonas aeruginosa [3]": {"test_system": "Pseudomonas aeruginosa", "test": "Antibacterial activity against multi-drug resistant Pseudomonas aeruginosa clinical isolate 1167 assessed as inhibition of bacterial growth by measuring minimum inhibitory concentration incubated for 18 to 20 hrs in presence of M9 medium by broth microdilution assay", "assay_type": "functional", "conditions": "time 18-20 hrs"}, "Pseudomonas aeruginosa [4]": {"test_system": "Pseudomonas aeruginosa", "test": "Antibacterial activity against Pseudomonas aeruginosa PAO1 assessed as inhibition of bacterial growth by measuring minimum inhibitory concentration incubated for 18 to 20 hrs in presence of MH medium by broth microdilution assay", "assay_type": "functional", "conditions": "time 18-20 hrs"}, "Pseudomonas aeruginosa [5]": {"test_system": "Pseudomonas aeruginosa", "test": "Antibacterial activity against multi-drug resistant Pseudomonas aeruginosa clinical isolate FB assessed as inhibition of bacterial growth by measuring minimum inhibitory concentration incubated for 18 to 20 hrs in presence of M9 medium by broth microdilution assay", "assay_type": "functional", "conditions": "time 18-20 hrs"}, "Pseudomonas aeruginosa [6]": {"test_system": "Pseudomonas aeruginosa", "test": "Antibacterial activity against Pseudomonas aeruginosa PAO1 assessed as inhibition of bacterial growth incubated for 18 to 20 hrs in presence of MH medium by broth microdilution assay", "assay_type": "functional, organism-based"}, "Staphylococcus aureus": {"test_system": "Staphylococcus aureus", "test": "Antibacterial activity against Staphylococcus aureus ATCC 25923 assessed as inhibition of bacterial growth by measuring minimum inhibitory concentration incubated for 18 to 20 hrs in presence of M9 medium by broth microdilution assay", "assay_type": "functional", "conditions": "time 18-20 hrs"}, "Pseudomonas aeruginosa [7]": {"test_system": "Pseudomonas aeruginosa", "test": "Antibacterial activity against Pseudomonas aeruginosa PAO1 assessed as inhibition of bacterial growth incubated for 18 to 20 hrs in presence of M9 and FeCl3 medium by broth microdilution assay", "assay_type": "functional, organism-based"}, "Pseudomonas aeruginosa [8]": {"test_system": "Pseudomonas aeruginosa", "test": "Antibacterial activity against multi-drug resistant Pseudomonas aeruginosa clinical isolate 1129 assessed as inhibition of bacterial growth by measuring minimum inhibitory concentration incubated for 18 to 20 hrs in presence of M9 medium by broth microdilution assay", "assay_type": "functional", "conditions": "time 18-20 hrs"}, "Pseudomonas aeruginosa [9]": {"test_system": "Pseudomonas aeruginosa", "test": "Antibacterial activity against multi-drug resistant Pseudomonas aeruginosa clinical isolate 1121 assessed as inhibition of bacterial growth by measuring minimum inhibitory concentration incubated for 18 to 20 hrs in presence of M9 medium by broth microdilution assay", "assay_type": "functional", "conditions": "time 18-20 hrs"}, "Pseudomonas aeruginosa [10]": {"test_system": "Pseudomonas aeruginosa", "test": "Antibacterial activity against Pseudomonas aeruginosa PAO1 assessed as inhibition of bacterial growth by measuring minimum inhibitory concentration incubated for 18 to 20 hrs in presence of M9 and FeCl3 medium by broth microdilution assay", "assay_type": "functional", "conditions": "time 18-20 hrs"}, "Pseudomonas aeruginosa [11]": {"test_system": "Pseudomonas aeruginosa", "test": "Antibacterial activity against Pseudomonas aeruginosa PAO1 assessed as inhibition of bacterial growth incubated for 18 to 20 hrs in presence of M9 medium by broth microdilution assay", "assay_type": "functional, organism-based"}, "Escherichia coli": {"test_system": "Escherichia coli", "test": "Antibacterial activity against Escherichia coli ATCC 25922 assessed as inhibition of bacterial growth by measuring minimum inhibitory concentration incubated for 18 to 20 hrs in presence of M9 medium by broth microdilution assay", "assay_type": "functional", "conditions": "time 18-20 hrs"}},
  "data": [
    {"smiles": "CC(C)=CCc1c(OCCCCn2cc(COCc3c(O)c(=O)cc(C)n3C)nn2)ccc(C(=O)/C=C/c2ccc(O)cc2)c1O", "values": [
      {"measurement": "MIC", "setting": "Pseudomonas aeruginosa [1]", "result": 32, "unit": "µg/mL"},
      {"measurement": "MIC", "setting": "Klebsiella pneumoniae", "result": "> 128", "unit": "µg/mL"},
      {"measurement": "MIC", "setting": "Pseudomonas aeruginosa [2]", "result": 32, "unit": "µg/mL"},
      {"measurement": "MIC", "setting": "Pseudomonas aeruginosa [3]", "result": 32, "unit": "µg/mL"},
      {"measurement": "MIC", "setting": "Pseudomonas aeruginosa [4]", "result": 64, "unit": "µg/mL"},
      {"measurement": "MIC", "setting": "Pseudomonas aeruginosa [5]", "result": 16, "unit": "µg/mL"},
      {"measurement": "IC50", "setting": "Pseudomonas aeruginosa [6]", "result": 29.4, "unit": "µg/mL"},
      {"measurement": "MIC", "setting": "Staphylococcus aureus", "result": 32, "unit": "µg/mL"},
      {"measurement": "IC50", "setting": "Pseudomonas aeruginosa [7]", "result": "> 128", "unit": "µg/mL"},
      {"measurement": "MIC", "setting": "Pseudomonas aeruginosa [8]", "result": 16, "unit": "µg/mL"},
      {"measurement": "MIC", "setting": "Pseudomonas aeruginosa [9]", "result": 8, "unit": "µg/mL"},
      {"measurement": "MIC", "setting": "Pseudomonas aeruginosa [10]", "result": "> 128", "unit": "µg/mL"},
      {"measurement": "IC50", "setting": "Pseudomonas aeruginosa [11]", "result": 3.64, "unit": "µg/mL"},
      {"measurement": "MIC", "setting": "Escherichia coli", "result": "> 128", "unit": "µg/mL"}
    ]},
    {"smiles": "CCn1cc(C(=O)O)c(=O)c2cc(F)c(N3CCNCC3)cc21", "note": "[NORFLOXACIN]", "values": [
      {"measurement": "MIC", "setting": "Pseudomonas aeruginosa [1]", "result": 1, "unit": "µg/mL"},
      {"measurement": "MIC", "setting": "Klebsiella pneumoniae", "result": 2, "unit": "µg/mL"},
      {"measurement": "MIC", "setting": "Pseudomonas aeruginosa [2]", "result": 0.25, "unit": "µg/mL"},
      {"measurement": "MIC", "setting": "Pseudomonas aeruginosa [3]", "result": 0.25, "unit": "µg/mL"},
      {"measurement": "MIC", "setting": "Pseudomonas aeruginosa [4]", "result": 0.125, "unit": "µg/mL"},
      {"measurement": "MIC", "setting": "Pseudomonas aeruginosa [5]", "result": 0.5, "unit": "µg/mL"},
      {"measurement": "IC50", "setting": "Pseudomonas aeruginosa [6]", "result": 0.03, "unit": "µg/mL"},
      {"measurement": "MIC", "setting": "Staphylococcus aureus", "result": 2, "unit": "µg/mL"},
      {"measurement": "IC50", "setting": "Pseudomonas aeruginosa [7]", "result": 0.07, "unit": "µg/mL"},
      {"measurement": "MIC", "setting": "Pseudomonas aeruginosa [8]", "result": 1, "unit": "µg/mL"},
      {"measurement": "MIC", "setting": "Pseudomonas aeruginosa [9]", "result": 0.5, "unit": "µg/mL"},
      {"measurement": "MIC", "setting": "Pseudomonas aeruginosa [10]", "result": 0.25, "unit": "µg/mL"},
      {"measurement": "IC50", "setting": "Pseudomonas aeruginosa [11]", "result": 0.08, "unit": "µg/mL"},
      {"measurement": "MIC", "setting": "Escherichia coli", "result": 0.015, "unit": "µg/mL"}
    ]},
    {"smiles": "CC(C)=CCc1c(OCCCCn2cc(COCc3cc(=O)c(O)cn3C)nn2)ccc(C(=O)/C=C/c2ccc(O)cc2)c1O", "values": [
      {"measurement": "MIC", "setting": "Pseudomonas aeruginosa [1]", "result": 32, "unit": "µg/mL"},
      {"measurement": "MIC", "setting": "Klebsiella pneumoniae", "result": "> 128", "unit": "µg/mL"},
      {"measurement": "MIC", "setting": "Pseudomonas aeruginosa [2]", "result": 16, "unit": "µg/mL"},
      {"measurement": "MIC", "setting": "Pseudomonas aeruginosa [3]", "result": 16, "unit": "µg/mL"},
      {"measurement": "MIC", "setting": "Pseudomonas aeruginosa [4]", "result": 32, "unit": "µg/mL"},
      {"measurement": "MIC", "setting": "Pseudomonas aeruginosa [5]", "result": 16, "unit": "µg/mL"},
      {"measurement": "IC50", "setting": "Pseudomonas aeruginosa [6]", "result": 17.8, "unit": "µg/mL"},
      {"measurement": "MIC", "setting": "Staphylococcus aureus", "result": 32, "unit": "µg/mL"},
      {"measurement": "IC50", "setting": "Pseudomonas aeruginosa [7]", "result": "> 128", "unit": "µg/mL"},
      {"measurement": "MIC", "setting": "Pseudomonas aeruginosa [8]", "result": 16, "unit": "µg/mL"},
      {"measurement": "MIC", "setting": "Pseudomonas aeruginosa [9]", "result": 8, "unit": "µg/mL"},
      {"measurement": "MIC", "setting": "Pseudomonas aeruginosa [10]", "result": "> 128", "unit": "µg/mL"},
      {"measurement": "IC50", "setting": "Pseudomonas aeruginosa [11]", "result": 2.55, "unit": "µg/mL"},
      {"measurement": "MIC", "setting": "Escherichia coli", "result": "> 128", "unit": "µg/mL"}
    ]},
    {"smiles": "CC(C)=CCc1c(O)ccc(C(=O)/C=C/c2ccc(OCCCOCc3c(O)c(=O)cc(C)n3C)cc2)c1O", "values": [
      {"measurement": "MIC", "setting": "Pseudomonas aeruginosa [1]", "result": 32, "unit": "µg/mL"},
      {"measurement": "MIC", "setting": "Klebsiella pneumoniae", "result": "> 128", "unit": "µg/mL"},
      {"measurement": "MIC", "setting": "Pseudomonas aeruginosa [2]", "result": 16, "unit": "µg/mL"},
      {"measurement": "MIC", "setting": "Pseudomonas aeruginosa [3]", "result": 8, "unit": "µg/mL"},
      {"measurement": "MIC", "setting": "Pseudomonas aeruginosa [4]", "result": 32, "unit": "µg/mL"},
      {"measurement": "MIC", "setting": "Pseudomonas aeruginosa [5]", "result": 16, "unit": "µg/mL"},
      {"measurement": "IC50", "setting": "Pseudomonas aeruginosa [6]", "result": 16.2, "unit": "µg/mL"},
      {"measurement": "MIC", "setting": "Staphylococcus aureus", "result": 32, "unit": "µg/mL"},
      {"measurement": "IC50", "setting": "Pseudomonas aeruginosa [7]", "result": "> 128", "unit": "µg/mL"},
      {"measurement": "MIC", "setting": "Pseudomonas aeruginosa [8]", "result": 16, "unit": "µg/mL"},
      {"measurement": "MIC", "setting": "Pseudomonas aeruginosa [9]", "result": 16, "unit": "µg/mL"},
      {"measurement": "MIC", "setting": "Pseudomonas aeruginosa [10]", "result": "> 128", "unit": "µg/mL"},
      {"measurement": "IC50", "setting": "Pseudomonas aeruginosa [11]", "result": 3.27, "unit": "µg/mL"},
      {"measurement": "MIC", "setting": "Escherichia coli", "result": "> 128", "unit": "µg/mL"}
    ]},
    {"smiles": "CC(C)=CCc1c(OCCCCCC(=O)NCc2cc(=O)c(O)cn2C)ccc(C(=O)/C=C/c2ccc(O)cc2)c1O", "values": [
      {"measurement": "MIC", "setting": "Pseudomonas aeruginosa [1]", "result": 32, "unit": "µg/mL"},
      {"measurement": "MIC", "setting": "Klebsiella pneumoniae", "result": "> 128", "unit": "µg/mL"},
      {"measurement": "MIC", "setting": "Pseudomonas aeruginosa [2]", "result": 16, "unit": "µg/mL"},
      {"measurement": "MIC", "setting": "Pseudomonas aeruginosa [3]", "result": 8, "unit": "µg/mL"},
      {"measurement": "MIC", "setting": "Pseudomonas aeruginosa [4]", "result": 32, "unit": "µg/mL"},
      {"measurement": "MIC", "setting": "Pseudomonas aeruginosa [5]", "result": 16, "unit": "µg/mL"},
      {"measurement": "IC50", "setting": "Pseudomonas aeruginosa [6]", "result": 19.7, "unit": "µg/mL"},
      {"measurement": "MIC", "setting": "Staphylococcus aureus", "result": 32, "unit": "µg/mL"},
      {"measurement": "IC50", "setting": "Pseudomonas aeruginosa [7]", "result": "> 128", "unit": "µg/mL"},
      {"measurement": "MIC", "setting": "Pseudomonas aeruginosa [8]", "result": 16, "unit": "µg/mL"},
      {"measurement": "MIC", "setting": "Pseudomonas aeruginosa [9]", "result": 8, "unit": "µg/mL"},
      {"measurement": "MIC", "setting": "Pseudomonas aeruginosa [10]", "result": "> 128", "unit": "µg/mL"},
      {"measurement": "IC50", "setting": "Pseudomonas aeruginosa [11]", "result": 1.72, "unit": "µg/mL"},
      {"measurement": "MIC", "setting": "Escherichia coli", "result": "> 128", "unit": "µg/mL"}
    ]}
  ]
}
